These results are taken from patent US8492442B2, “Medicinal composition, food or drink having effect of enhancing parasympathetic nervous activity” (Suntory Holdings Limited, priority 2007, dated 2013).

Assay [1] relates to kidney sympathetic nervous activity. Nature of the assay: Rat kidney sympathetic nervous activity after transduodenal administration (electrical discharge recording). The class given is in vivo. The conditions noted are these: male Wister rats, urethane-anesthesia. On the procedure:
In these experiments, use was made of male Wister rats weighing about 300 to 350 g which had been preliminarily fed in a thermostatic chamber (24° C.) with a light-dark cycle of 12-hour intervals (under illumination from 8:00 to 20:00) for 1 week or longer. A single rat was employed for each nervous experiment. The animals were fed with a feed (MF: Oriental Yeast) and water ad libitum. The autonomic nervous activity were examined by fasting the rats for 5 hours on the day of the experiment and then subjecting to an abdominal surgery under urethane-anesthesia (1 g/kg, i.p.). Then, the effects of the transduodenal administration of L-phenyl lactic acid and D-phenyl lactic acid (10 μg or 100 μg) on the kidney sympathetic nervous activity were measured in accordance with the method reported by T. Yamano et al., Neurosci. Lett. 313:78-82 (2001), A. Niijima et al., Autonom. Neurosci.: Basic & Clinical 97:99-102 (2002) and M. Tanida et al., Am. J. Physiol: Regulatory, Integrative and Comparative Physiology 288:R447-R455 (2005). Namely, the sympathetic nerve projecting toward the kidney was cut before the organ and the central side was placed on a silver electrode. Thus, a change in the electrical activity was monitored. To prevent dryness, the electrode had been preliminarily dipped in a mixture of liquid paraffin and petroleum jelly for a sufficient period of time. From the initiation of the surgery to the completion of the measurement, a tube was inserted into the respiratory tract for the management of the airway. The body temperature (rat rectal temperature) was maintained at 35±0.5° C. with the use of a heater. The transduodenal administration was conducted by dissolving L-phenyl lactic acid or D-phenyl lactic acid in physiological saline to give a concentration of 10 μg/2 ml or 100 μg/2 ml, and administering 2 ml/animal of each solution at a rate of 1 ml/min through a polyethylene tube inserted into the duodenum. Electrical nervous activity thus obtained were amplified with a condenser type differential amplifier, monitored with an oscilloscope and recorded on a magnetic tape. To separate the raw data from the background noise, all of the nervous activities were converted into standard pulses by use of a slicer and a window discriminator before analyzing. Discharge frequencies were indicated on a pen recorder by using a rate meter at a reset time of 5 seconds. The data was analyzed based on the average discharge frequency per 5 seconds (pulse/5 sec) and expressed in percentage by referring the level before the administration as to 100%. A group with the administration of physiological saline was employed as a control.

Another assay concerns blood pressure. Nature of the assay: Rat blood pressure after transduodenal administration (femoral artery cannula, transducer). The class given is in vivo. The conditions noted are these: 100 μg, FIG. 4.
The test system of assay [2] is stomach vagal (parasympathetic) nervous activity. Nature of the assay: Rat stomach vagal (parasympathetic) nervous activity after transduodenal administration. The class given is in vivo. The conditions noted are these: 100 μg, FIG. 5.
The next assay concerns Aspergillus niger. The following applies: etc.; cited from earlier work.
Assay [3] relates to pathogenic Escherichia coli O-157. The following applies: phenyl lactic acid produced by use of a lactic acid bacterium; cited from earlier work.
The subject of assay [4] is methicillin-resistant Staphylococcus aureus. The conditions noted are these: phenyl lactic acid produced by use of a lactic acid bacterium; cited from earlier work.

SMILES strings stand for the structures. Entries after “also recorded” stand apart in the source; their conditions may differ.

Take `O=C(O)[C@@H](O)Cc1ccccc1` [L-phenyl lactic acid, L-β-3-phenyl lactic acid]: the “effect on kidney sympathetic nervous activity” value is recorded as “little effect” in assay [1] (10 μg/animal, FIG. 2) and “reduced; also recorded: higher reducing effect” in assay [1] (100 μg/animal, FIG. 3). Moreover, the “effect on rat blood pressure” value with blood pressure is “hypotensive effects”. Further, in assay [2], the “effect on rat stomach vagal (parasympathetic) nervous activity” value is listed as “enhancement”.
Take `O=C(O)C(O)Cc1ccccc1` (stereo not shown) [phenyl lactic acid, 2-hydroxy-3-phenyl propionic acid]: the antifungal activity entry with Aspergillus niger was “antifungal activity”. Also, the antibacterial effect entry in assay [3] and in assay [4] was “antibacterial effect” each time.
For the molecule `O=C(O)[C@H](O)Cc1ccccc1` [D-phenyl lactic acid, D-β-3-phenyl lactic acid], the “effect on kidney sympathetic nervous activity” value is on record as “enhanced” in assay [1] (10 μg/animal, FIG. 2) and “reduced” in assay [1] (100 μg/animal, FIG. 3). The “effect on rat blood pressure” value with blood pressure is “hypotensive effects”.
